From ChEMBL document CHEMBL4507318, “Data for DCP probe BAY-985” (2021)

Tests used:
[1] = target: Ribosomal protein S6 kinase alpha-4 (Homo sapiens) (UniProt O75676)
[2] = target: Dual specificity mitogen-activated protein kinase kinase 6 (Homo sapiens) (UniProt P52564)
[3] = system: Leucine-rich repeat serine/threonine-protein kinase 2 (Homo sapiens), Q5S007 [G2019S]
[4] = target: Tyrosine-protein kinase ABL2 (Homo sapiens) (UniProt P42684)
[5] = target: Serine/threonine-protein kinase ULK2 (Homo sapiens) (UniProt Q8IYT8)
[6] = target: Mitogen-activated protein kinase kinase kinase 4 (Homo sapiens) (UniProt Q9Y6R4)
[7] = target: Aurora kinase A (Homo sapiens) (UniProt O14965)
[8] = target: Ribosomal protein S6 kinase alpha-1 (Homo sapiens) (UniProt Q15418)
[9] = target: Rhodopsin kinase GRK1 (Homo sapiens) (UniProt Q15835)
[10] = system: Tyrosine-protein kinase ABL1 (Homo sapiens), P00519 [E255K]
[11] = target: Inhibitor of nuclear factor kappa-B kinase subunit beta (Homo sapiens) (UniProt O14920)
[12] = target: Mitogen-activated protein kinase kinase kinase 7 (Homo sapiens) (UniProt O43318)
[13] = target: Mitogen-activated protein kinase 15 (Homo sapiens) (UniProt Q8TD08)
[14] = target: Serine/threonine-protein kinase Nek6 (Homo sapiens) (UniProt Q9HC98)
[15] = target: High affinity nerve growth factor receptor (Homo sapiens) (UniProt P04629)
[16] = target: Myosin light chain kinase 2, skeletal/cardiac muscle (Homo sapiens) (UniProt Q9H1R3)
[17] = target: Ephrin type-A receptor 3 (Homo sapiens) (UniProt P29320)
[18] = system: Hepatocyte growth factor receptor (Homo sapiens), P08581 [Y1235D]
[19] = target: Serine/threonine-protein kinase SIK2 (Homo sapiens) (UniProt Q9H0K1)
[20] = target: Mitogen-activated protein kinase 8 (Homo sapiens) (UniProt P45983)
[21] = target: Serine/threonine-protein kinase VRK2 (Homo sapiens) (UniProt Q86Y07)
[22] = target: Serine/threonine-protein kinase DCLK3 (Homo sapiens) (UniProt Q9C098)
[23] = system: Phosphatidylinositol 4,5-bisphosphate 3-kinase catalytic subunit alpha isoform (Homo sapiens), P42336 [H1047Y]
[24] = target: Mitogen-activated protein kinase 10 (Homo sapiens) (UniProt P53779)
[25] = system: Phosphatidylinositol 4,5-bisphosphate 3-kinase catalytic subunit alpha isoform (Homo sapiens), P42336 [Q546K]
[26] = target: Rhodopsin kinase GRK7 (Homo sapiens) (UniProt Q8WTQ7)
[27] = target: Serine/threonine-protein kinase 35 (Homo sapiens) (UniProt Q8TDR2)
[28] = target: Calcium/calmodulin-dependent protein kinase kinase 1 (Homo sapiens) (UniProt Q8N5S9)
[29] = target: 5-hydroxytryptamine receptor 2B (Homo sapiens, UniProt P41595); conditions: Compound concentration 10.0 uM
[30] = target: Mitogen-activated protein kinase 14 (Homo sapiens) (UniProt Q16539)
[31] = system: Tyrosine-protein kinase ABL1 (Homo sapiens), P00519 [Y253F]
[32] = system: Proto-oncogene tyrosine-protein kinase receptor Ret (Homo sapiens), P07949 [V804L]
[33] = target: SRSF protein kinase 3 (Homo sapiens) (UniProt Q9UPE1)
[34] = target: SRSF protein kinase 2 (Homo sapiens) (UniProt P78362)
[35] = target: Mitogen-activated protein kinase 6 (Homo sapiens) (UniProt Q16659)
[36] = target: NUAK family SNF1-like kinase 1 (Homo sapiens) (UniProt O60285)
[37] = target: Serine/threonine-protein kinase BRSK1 (Homo sapiens) (UniProt Q8TDC3)
[38] = target: Mitogen-activated protein kinase 7 (Homo sapiens) (UniProt Q13164)
[39] = system: Epidermal growth factor receptor (Homo sapiens), P00533 [G719C]
[40] = target: Cyclin-dependent kinase-like 2 (Homo sapiens) (UniProt Q92772)
[41] = target: Mitogen-activated protein kinase kinase kinase 11 (Homo sapiens) (UniProt Q16584)
[42] = system: Epidermal growth factor receptor (Homo sapiens), P00533 [UNDEFINED MUTATION]
[43] = target: Cyclin-dependent kinase 19 (Homo sapiens) (UniProt Q9BWU1)
[44] = target: Phosphatidylinositol 4,5-bisphosphate 3-kinase catalytic subunit alpha isoform (Homo sapiens) (UniProt P42336)
[45] = target: Leukocyte tyrosine kinase receptor (Homo sapiens) (UniProt P29376)
[46] = Compound concentration 1000.0 nM
[47] = Compound concentration 100.0 nM

Chain of Ribosomal protein S6 kinase alpha-1 (Homo sapiens) (Q15418 whole entry): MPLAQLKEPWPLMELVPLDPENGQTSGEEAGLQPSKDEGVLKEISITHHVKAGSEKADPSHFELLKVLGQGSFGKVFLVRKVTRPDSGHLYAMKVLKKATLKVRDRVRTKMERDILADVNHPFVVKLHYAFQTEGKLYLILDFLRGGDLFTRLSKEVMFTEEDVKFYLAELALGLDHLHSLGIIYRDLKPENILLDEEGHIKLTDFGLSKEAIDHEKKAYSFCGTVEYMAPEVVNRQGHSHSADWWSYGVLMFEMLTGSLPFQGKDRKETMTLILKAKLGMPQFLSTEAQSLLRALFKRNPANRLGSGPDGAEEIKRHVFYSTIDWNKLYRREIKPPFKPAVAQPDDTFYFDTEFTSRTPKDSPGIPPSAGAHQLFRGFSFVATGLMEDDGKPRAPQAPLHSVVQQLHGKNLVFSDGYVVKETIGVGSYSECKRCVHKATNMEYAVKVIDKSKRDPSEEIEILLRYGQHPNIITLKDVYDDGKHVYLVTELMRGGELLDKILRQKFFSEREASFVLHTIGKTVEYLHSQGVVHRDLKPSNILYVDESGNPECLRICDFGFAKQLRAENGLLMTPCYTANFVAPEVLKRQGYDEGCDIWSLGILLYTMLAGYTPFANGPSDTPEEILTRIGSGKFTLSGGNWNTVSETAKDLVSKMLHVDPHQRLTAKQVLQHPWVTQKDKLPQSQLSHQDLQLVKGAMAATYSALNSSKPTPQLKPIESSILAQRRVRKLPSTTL
Chain of Tyrosine-protein kinase ABL2 (Homo sapiens) (P42684 whole entry): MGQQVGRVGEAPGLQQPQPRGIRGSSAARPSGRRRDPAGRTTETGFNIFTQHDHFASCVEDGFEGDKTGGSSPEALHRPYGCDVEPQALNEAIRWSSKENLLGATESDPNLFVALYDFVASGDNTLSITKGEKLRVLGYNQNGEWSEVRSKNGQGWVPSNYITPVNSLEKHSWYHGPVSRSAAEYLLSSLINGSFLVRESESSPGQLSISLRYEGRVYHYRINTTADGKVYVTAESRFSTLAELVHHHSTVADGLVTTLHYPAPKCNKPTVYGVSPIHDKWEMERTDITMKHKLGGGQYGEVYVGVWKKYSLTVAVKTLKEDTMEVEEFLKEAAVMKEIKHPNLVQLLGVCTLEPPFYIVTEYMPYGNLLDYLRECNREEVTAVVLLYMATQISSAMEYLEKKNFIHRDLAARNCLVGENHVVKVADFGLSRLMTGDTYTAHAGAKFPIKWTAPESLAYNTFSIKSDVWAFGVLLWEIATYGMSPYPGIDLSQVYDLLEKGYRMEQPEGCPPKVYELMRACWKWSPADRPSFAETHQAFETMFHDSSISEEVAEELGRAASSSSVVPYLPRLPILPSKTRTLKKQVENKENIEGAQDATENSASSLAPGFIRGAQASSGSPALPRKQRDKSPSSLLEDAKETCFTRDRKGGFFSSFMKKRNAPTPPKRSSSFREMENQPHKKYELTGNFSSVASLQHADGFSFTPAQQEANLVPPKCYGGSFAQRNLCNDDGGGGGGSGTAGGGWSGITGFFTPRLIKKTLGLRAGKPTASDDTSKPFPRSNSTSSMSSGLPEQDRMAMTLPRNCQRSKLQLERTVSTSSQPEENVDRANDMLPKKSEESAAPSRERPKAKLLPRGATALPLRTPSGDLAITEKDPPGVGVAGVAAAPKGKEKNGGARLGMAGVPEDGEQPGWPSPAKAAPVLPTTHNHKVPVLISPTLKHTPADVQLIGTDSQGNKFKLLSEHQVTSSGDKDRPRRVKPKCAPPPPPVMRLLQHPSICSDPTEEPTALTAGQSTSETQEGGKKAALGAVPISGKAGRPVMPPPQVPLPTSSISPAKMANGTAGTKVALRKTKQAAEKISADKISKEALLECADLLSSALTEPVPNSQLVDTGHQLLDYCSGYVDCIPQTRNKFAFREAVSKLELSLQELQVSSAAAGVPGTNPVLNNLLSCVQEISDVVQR
Chain of Serine/threonine-protein kinase BRSK1 (Homo sapiens) (Q8TDC3 whole entry): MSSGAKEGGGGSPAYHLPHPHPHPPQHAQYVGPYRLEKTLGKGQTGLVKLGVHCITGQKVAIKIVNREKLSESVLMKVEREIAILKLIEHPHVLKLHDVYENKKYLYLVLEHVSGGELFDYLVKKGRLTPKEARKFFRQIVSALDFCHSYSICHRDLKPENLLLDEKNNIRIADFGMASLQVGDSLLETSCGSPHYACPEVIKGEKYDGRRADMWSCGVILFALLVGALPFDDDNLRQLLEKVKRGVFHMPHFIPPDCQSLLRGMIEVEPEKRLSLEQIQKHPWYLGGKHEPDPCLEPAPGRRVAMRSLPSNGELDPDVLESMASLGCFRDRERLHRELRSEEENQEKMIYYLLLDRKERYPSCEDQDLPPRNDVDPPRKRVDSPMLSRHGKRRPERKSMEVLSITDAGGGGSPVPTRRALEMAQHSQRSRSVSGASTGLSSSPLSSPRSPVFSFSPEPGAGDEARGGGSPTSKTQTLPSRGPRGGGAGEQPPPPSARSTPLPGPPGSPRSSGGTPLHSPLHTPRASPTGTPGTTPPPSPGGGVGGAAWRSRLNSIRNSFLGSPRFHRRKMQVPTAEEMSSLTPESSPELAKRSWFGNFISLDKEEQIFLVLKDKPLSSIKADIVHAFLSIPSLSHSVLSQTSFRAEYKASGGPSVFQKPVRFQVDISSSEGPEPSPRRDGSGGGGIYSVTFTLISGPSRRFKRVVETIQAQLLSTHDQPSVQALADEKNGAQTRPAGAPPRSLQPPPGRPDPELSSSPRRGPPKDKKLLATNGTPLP
Chain of Mitogen-activated protein kinase 7 (Homo sapiens) (Q13164 2-816 limits assumed): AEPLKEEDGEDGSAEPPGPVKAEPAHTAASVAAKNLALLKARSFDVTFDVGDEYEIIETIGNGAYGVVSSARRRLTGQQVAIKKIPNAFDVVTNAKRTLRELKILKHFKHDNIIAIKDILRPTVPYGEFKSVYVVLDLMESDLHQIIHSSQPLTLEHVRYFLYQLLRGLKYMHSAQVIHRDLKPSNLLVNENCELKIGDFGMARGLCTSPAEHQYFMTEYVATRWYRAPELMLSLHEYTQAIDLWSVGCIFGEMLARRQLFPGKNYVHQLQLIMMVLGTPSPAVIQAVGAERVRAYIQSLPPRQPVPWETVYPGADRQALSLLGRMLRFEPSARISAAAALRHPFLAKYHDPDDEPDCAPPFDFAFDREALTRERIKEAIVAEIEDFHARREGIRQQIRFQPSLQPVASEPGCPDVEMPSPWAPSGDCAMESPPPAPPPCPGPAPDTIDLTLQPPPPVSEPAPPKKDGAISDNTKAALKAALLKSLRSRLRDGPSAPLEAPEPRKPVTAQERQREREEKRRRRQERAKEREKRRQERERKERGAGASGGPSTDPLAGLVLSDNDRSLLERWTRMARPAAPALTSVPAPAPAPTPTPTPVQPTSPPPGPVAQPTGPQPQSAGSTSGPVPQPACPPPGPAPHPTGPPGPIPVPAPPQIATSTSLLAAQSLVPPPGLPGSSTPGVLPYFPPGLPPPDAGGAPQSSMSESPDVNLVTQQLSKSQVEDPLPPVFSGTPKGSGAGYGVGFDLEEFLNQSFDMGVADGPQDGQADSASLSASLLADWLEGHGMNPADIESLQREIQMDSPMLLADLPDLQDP
Chain of SRSF protein kinase 2 (Homo sapiens) (P78362 whole entry, looked up): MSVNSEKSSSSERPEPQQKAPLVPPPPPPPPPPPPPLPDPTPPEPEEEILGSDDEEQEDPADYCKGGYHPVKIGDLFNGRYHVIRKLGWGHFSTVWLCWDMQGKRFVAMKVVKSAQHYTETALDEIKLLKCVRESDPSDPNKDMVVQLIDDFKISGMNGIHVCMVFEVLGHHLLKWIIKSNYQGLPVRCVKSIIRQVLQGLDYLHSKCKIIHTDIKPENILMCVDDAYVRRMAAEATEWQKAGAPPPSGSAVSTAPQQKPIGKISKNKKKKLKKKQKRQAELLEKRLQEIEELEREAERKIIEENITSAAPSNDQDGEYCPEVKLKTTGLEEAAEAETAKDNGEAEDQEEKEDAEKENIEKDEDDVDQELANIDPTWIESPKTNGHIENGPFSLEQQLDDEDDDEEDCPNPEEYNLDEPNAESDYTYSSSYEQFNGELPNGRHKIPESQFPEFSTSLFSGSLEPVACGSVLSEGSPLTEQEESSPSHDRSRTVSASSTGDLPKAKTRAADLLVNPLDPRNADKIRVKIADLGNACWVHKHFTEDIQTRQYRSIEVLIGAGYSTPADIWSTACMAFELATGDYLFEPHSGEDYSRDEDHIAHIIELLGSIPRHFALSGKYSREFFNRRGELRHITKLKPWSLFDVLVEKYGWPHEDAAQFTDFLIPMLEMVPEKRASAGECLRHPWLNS
Chain of Dual specificity mitogen-activated protein kinase kinase 6 (Homo sapiens) (P52564 whole entry): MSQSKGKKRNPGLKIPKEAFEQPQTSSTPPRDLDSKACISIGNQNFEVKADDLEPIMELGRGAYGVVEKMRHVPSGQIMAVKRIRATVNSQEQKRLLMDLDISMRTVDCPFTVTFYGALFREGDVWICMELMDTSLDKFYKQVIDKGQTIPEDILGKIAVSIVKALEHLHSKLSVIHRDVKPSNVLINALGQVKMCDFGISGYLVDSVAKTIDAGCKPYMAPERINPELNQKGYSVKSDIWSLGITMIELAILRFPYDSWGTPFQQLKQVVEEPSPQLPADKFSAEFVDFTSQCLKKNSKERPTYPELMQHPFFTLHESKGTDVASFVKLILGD
Chain of Mitogen-activated protein kinase 10 (Homo sapiens) (P53779 whole entry, canonical isoform): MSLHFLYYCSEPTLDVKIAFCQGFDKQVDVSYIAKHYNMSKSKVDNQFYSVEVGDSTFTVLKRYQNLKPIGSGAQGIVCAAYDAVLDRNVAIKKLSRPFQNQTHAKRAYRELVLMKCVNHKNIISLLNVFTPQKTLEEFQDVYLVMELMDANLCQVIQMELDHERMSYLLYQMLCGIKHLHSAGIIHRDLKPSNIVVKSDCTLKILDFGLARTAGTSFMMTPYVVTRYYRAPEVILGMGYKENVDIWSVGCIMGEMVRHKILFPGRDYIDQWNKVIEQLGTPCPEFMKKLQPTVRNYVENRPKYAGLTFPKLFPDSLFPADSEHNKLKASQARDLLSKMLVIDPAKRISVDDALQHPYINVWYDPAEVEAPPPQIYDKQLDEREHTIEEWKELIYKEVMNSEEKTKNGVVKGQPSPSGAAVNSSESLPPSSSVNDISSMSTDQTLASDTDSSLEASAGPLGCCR

For `CN(C)c1ncnc(-c2ccc3nc(Nc4cc(CN5CCN(C(=O)CC(F)(F)F)CC5)ccn4)[nH]c3c2)c1Cl` [BAY-440], which residual activity [1, 46] is on record?
The residual activity was 73%.

What about the residual activity [2, 46] of the same compound?
Its residual activity is 92%.

And the residual activity [3, 46]?
The residual activity was 69%.

What about the residual activity [4, 46] of the same compound?
The residual activity was 71%.

What about the residual activity [5, 46] of the same compound?
Its residual activity is 64%.

What about the residual activity [6, 46] of the same compound?
Its residual activity is 100%.

And the residual activity [7, 46]?
The residual activity was 84%.

What about the residual activity [8, 46] of the same compound?
The residual activity was 98%.

What about the residual activity [9, 46] of the same compound?
Its residual activity is 90%.

And the residual activity [10, 46]?
The residual activity was 49%.

What about the residual activity [11, 46] of the same compound?
The residual activity was 80%.

What about the residual activity [12, 46] of the same compound?
The residual activity was 74%.

And the residual activity [13, 46]?
The residual activity was 73%.

And the residual activity [14, 46]?
Its residual activity is 98%.

And the residual activity [15, 46]?
The residual activity was 38%.

And the residual activity [16, 46]?
The residual activity was 100%.

And the residual activity [17, 46]?
The residual activity was 63%.

What about the residual activity [18, 46] of the same compound?
Its residual activity is 68%.

What about the residual activity [19, 46] of the same compound?
Its residual activity is 59%.

And the residual activity [20, 46]?
Its residual activity is 63%.

What about the residual activity [21, 46] of the same compound?
The residual activity was 88%.

And the residual activity [22, 46]?
Its residual activity is 92%.

And the residual activity [23, 46]?
Its residual activity is 74%.

What about the residual activity [24, 46] of the same compound?
The residual activity was 51%.

And the residual activity [25, 46]?
The residual activity was 30%.

And the residual activity [26, 46]?
The residual activity was 90%.

And the residual activity [27, 46]?
Its residual activity is 83%.

And the residual activity [28, 46]?
Its residual activity is 100%.

What about the inhibition [29] of the same compound?
The inhibition was 39%.

And the residual activity [30, 46]?
Its residual activity is 100%.

And the residual activity [31, 46]?
Its residual activity is 37%.

And the residual activity [32, 46]?
Its residual activity is 100%.

What about the residual activity [33, 46] of the same compound?
The residual activity was 100%.

And the residual activity [34, 46]?
The residual activity was 76%.

What about the residual activity [35, 46] of the same compound?
The residual activity was 100%.

And the residual activity [36, 46]?
The residual activity was 100%.

What about the residual activity [37, 46] of the same compound?
Its residual activity is 100%.

What about the residual activity [38, 46] of the same compound?
Its residual activity is 91%.

What about the residual activity [39, 46] of the same compound?
The residual activity was 88%.

What about the residual activity [40, 46] of the same compound?
The residual activity was 100%.

What about the residual activity [41, 46] of the same compound?
Its residual activity is 100%.

And the residual activity [42, 46]?
The residual activity was 88%.

What about the residual activity [43, 46] of the same compound?
Its residual activity is 75%.

And the residual activity [44, 46]?
Its residual activity is 100%.

What about the residual activity [45, 46] of the same compound?
The residual activity was 88%.

With `C[C@H](c1ccnc(Nc2nc3ccc(-c4cc(N(C)C)ncn4)cc3[nH]2)c1)N1CCN(C(=O)CC(F)(F)F)CC1` [BAY-985] as the compound, how does the residual activity [1, 47] read?
Its residual activity is 94%.

What about the residual activity [2, 47] of the same compound?
The residual activity was 96%.

What about the residual activity [3, 47] of the same compound?
The residual activity was 100%.

And the residual activity [4, 47]?
The residual activity was 100%.

And the residual activity [5, 47]?
The residual activity was 100%.

What about the residual activity [6, 47] of the same compound?
Its residual activity is 96%.

And the residual activity [7, 47]?
The residual activity was 100%.

What about the residual activity [8, 47] of the same compound?
The residual activity was 82%.

And the residual activity [9, 47]?
Its residual activity is 90%.

And the residual activity [10, 47]?
The residual activity was 97%.

What about the residual activity [11, 47] of the same compound?
Its residual activity is 99%.

And the residual activity [12, 47]?
Its residual activity is 85%.

What about the residual activity [13, 47] of the same compound?
Its residual activity is 100%.

And the residual activity [14, 47]?
The residual activity was 83%.

And the residual activity [15, 47]?
The residual activity was 79%.

And the residual activity [16, 47]?
The residual activity was 92%.

What about the residual activity [17, 47] of the same compound?
Its residual activity is 100%.

And the residual activity [18, 47]?
The residual activity was 100%.

What about the residual activity [19, 47] of the same compound?
The residual activity was 79%.

What about the residual activity [20, 47] of the same compound?
Its residual activity is 98%.

And the residual activity [21, 47]?
The residual activity was 94%.

What about the residual activity [22, 47] of the same compound?
Its residual activity is 100%.

What about the residual activity [23, 47] of the same compound?
The residual activity was 100%.

What about the residual activity [24, 47] of the same compound?
The residual activity was 81%.

And the residual activity [25, 47]?
Its residual activity is 45%.

And the residual activity [26, 47]?
The residual activity was 89%.

What about the residual activity [27, 47] of the same compound?
The residual activity was 100%.

What about the residual activity [28, 47] of the same compound?
The residual activity was 89%.

What about the inhibition [29] of the same compound?
Its inhibition is 60%.

What about the residual activity [30, 47] of the same compound?
Its residual activity is 100%.

What about the residual activity [31, 47] of the same compound?
Its residual activity is 91%.

What about the residual activity [32, 47] of the same compound?
Its residual activity is 83%.

And the residual activity [33, 47]?
The residual activity was 100%.

What about the residual activity [34, 47] of the same compound?
The residual activity was 100%.

And the residual activity [35, 47]?
The residual activity was 86%.

What about the residual activity [36, 47] of the same compound?
The residual activity was 93%.

And the residual activity [37, 47]?
The residual activity was 100%.

What about the residual activity [38, 47] of the same compound?
The residual activity was 100%.

What about the residual activity [39, 47] of the same compound?
Its residual activity is 84%.

What about the residual activity [40, 47] of the same compound?
Its residual activity is 100%.

What about the residual activity [41, 47] of the same compound?
The residual activity was 92%.

What about the residual activity [42, 47] of the same compound?
Its residual activity is 86%.

And the residual activity [43, 47]?
Its residual activity is 93%.

What about the residual activity [44, 47] of the same compound?
The residual activity was 100%.

What about the residual activity [45, 47] of the same compound?
Its residual activity is 100%.
